Experimental data reported in patent publication US20260048155A1, “BIOCOMPATIBLE PARAHYDROGEN HYPERPOLARIZED SOLUTIONS BY PRECIPITATION AND RE-DISSOLUTION” (North Carolina State University, priority 2022, published 2026).

Assay: Titration study of sodium pyruvate solubility / precipitation from methanol by added solvent
Format: physicochemical
Protocol: Precipitating and filtering of pyruvate from solutions using thermally polarized natural-abundance sodium pyruvate: Considering the finding of low pyruvate solubility herein, ethanol was an obvious first choice as the precipitating solvent. […] Other candidates (acetone, 1-propanol, and ethyl acetate) were tested next. All three solvents mixed with methanol and dissolved 6 mM of SABRE catalyst well. […] For each of the three solvents (FIG. 11) eight 500-μL batches of methanol containing different concentrations of pyruvate were prepared (cpyr∈[80, 60, 40, 30, 20, 8, 4, 2] mM). Then, 9.5 mL of the respective precipitating solvent were added to each sample. In all 80 mM samples, prominent and almost instantaneous precipitation was observed as the solutions lost transparency and became milky. For 1-propanol, acetone, and ethyl acetate, precipitation was visible for all mixtures with 40 mM, 20 mM, and 4 mM or more initial concentration of pyruvate, respectively. Additionally, as ethyl acetate and water are immiscible, a later purification of this solvent was expected to be advantageous (see below). Based on these observations, the rest of the study was continued with acetone and ethyl acetate.

CC(=O)C(=O)[O-].[Na+] [sodium pyruvate]
precipitation on ethanol addition (9-fold volume of ethanol added to 80 mM in methanol): no precipitation was detected | initial pyruvate concentration in methanol at which precipitation was visible (500 μL methanol + 9.5 mL 1-propanol): ≥ 40 mM | initial pyruvate concentration in methanol at which precipitation was visible (500 μL methanol + 9.5 mL acetone): ≥ 20 mM | initial pyruvate concentration in methanol at which precipitation was visible (500 μL methanol + 9.5 mL ethyl acetate): ≥ 4 mM
